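Values below derive from 48-hour exposures of cells grown in 96-well plates, with endpoints linearly interpolated between the two concentrations bracketing the appropriate inhibition level. TGI: total growth inhibition.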
Key:
Experiment in all cases: growth of human tumour cells (NCI), 48 h
[1] = system: MALME-3M melanoma
[2] = system: LOX IMVI melanoma
[3] = system: RXF 393 renal
[4] = system: SK-MEL-5 melanoma
[5] = system: BT-549 breast
[6] = system: UACC-257 melanoma
[7] = system: CCRF-CEM leukemia
[8] = system: ACHN renal
[9] = system: RPMI-8226 leukemia
[10] = system: UACC-62 melanoma
[11] = system: MDA-N
[12] = system: TK-10 renal
[13] = system: SF-295 CNS
[14] = system: A498 renal
[15] = system: HS 578T breast
[16] = system: MDA-MB-231 breast
[17] = system: K-562 leukemia
[18] = system: CAKI-1 renal
[19] = system: M14 melanoma
[20] = system: SK-MEL-28 melanoma
[21] = system: SK-MEL-2 melanoma
[22] = system: HL-60(TB) leukemia
[23] = system: HCC-2998 colon
[24] = system: OVCAR-3 ovarian
[25] = system: SNB-19 CNS
[26] = system: DU-145 prostate
[27] = system: MDA-MB-435
[28] = system: OVCAR-4 ovarian
[29] = system: NCI-H226 lung
[30] = system: NCI-H522 lung
[31] = system: 786-0 renal
[32] = system: MOLT-4 leukemia
[33] = system: HT29 colon
[34] = system: COLO 205 colon
[35] = system: HOP-62 NSCLC
[36] = system: U251 CNS
[37] = system: PC-3 prostate
[38] = system: KM12 colon
[39] = system: SN12C renal
[40] = system: NCI-H460 lung
[41] = system: EKVX NSCLC
[42] = system: SK-OV-3 ovarian
[43] = system: OVCAR-8 ovarian
[44] = system: NCI-H23 lung
[45] = system: SF-539 CNS
[46] = system: SF-268 CNS
[47] = system: IGROV1 ovarian
[48] = system: HOP-92 NSCLC
[49] = system: HCT-116 colon
[50] = system: T-47D breast
[51] = system: A549 NSCLC
[52] = system: OVCAR-5 ovarian
[53] = system: UO-31 renal
[54] = system: NCI/ADR-RES ovarian
[55] = system: MCF7 breast
[56] = system: SR leukemia
[57] = system: SW-620 colon
[58] = system: HCT-15 colon
[59] = system: SNB-75 CNS

SMILES: COc1ccc(-c2c(C#N)c(N)nc(Sc3ccccc3N)c2C#N)cc1
- TGI [1]: 42.4 µM
- TGI [2]: > 100 µM
- TGI [3]: 30.1 µM
- TGI [4]: > 100 µM
- TGI [5]: > 100 µM
- TGI [6]: > 100 µM
- TGI [7]: > 100 µM
- TGI [8]: 51.4 µM
- TGI [9]: > 100 µM
- TGI [10]: > 44.5 µM
- TGI [11]: > 100 µM
- TGI [12]: 46 µM
- TGI [13]: 56.6 µM
- TGI [14]: 19.6 µM
- TGI [15]: 45.3 µM
- TGI [16]: 48.2 µM
- TGI [17]: > 100 µM
- TGI [18]: > 65.9 µM
- TGI [19]: > 100 µM
- TGI [20]: > 100 µM
- TGI [21]: 39.7 µM
- TGI [22]: > 100 µM
- TGI [23]: > 100 µM
- TGI [24]: > 100 µM
- TGI [25]: > 55.5 µM
- TGI [26]: > 100 µM
- TGI [27]: > 100 µM
- TGI [28]: > 100 µM
- TGI [29]: > 100 µM
- TGI [30]: 62.5 µM
- TGI [31]: 32.3 µM
- TGI [32]: > 100 µM
- TGI [33]: > 100 µM
- TGI [34]: > 100 µM
- TGI [35]: 32.6 µM
- TGI [36]: 61 µM
- TGI [37]: > 55.6 µM
- TGI [38]: > 100 µM
- TGI [39]: > 100 µM
- TGI [40]: > 100 µM
- TGI [41]: > 100 µM
- TGI [42]: 32.6 µM
- TGI [43]: 45.7 µM
- TGI [44]: > 100 µM
- TGI [45]: 56.9 µM
- TGI [46]: 28.1 µM
- TGI [47]: > 56.8 µM
- TGI [48]: 27.2 µM
- TGI [49]: > 100 µM
- TGI [50]: 17.5 µM
- TGI [51]: > 100 µM
- TGI [52]: > 100 µM
- TGI [53]: > 100 µM
- TGI [54]: 98.4 µM
- TGI [55]: > 65.7 µM
- TGI [56]: > 100 µM
- TGI [57]: > 100 µM
- TGI [58]: > 100 µM

SMILES: CC1(c2cccc(C(F)(F)F)c2)CC(c2cccc(C(F)(F)F)c2)=C(C#N)C(=C(C#N)C#N)N1 (stereo unspecified)
- TGI [1]: 32.4 µM
- TGI [2]: 34.1 µM
- TGI [3]: 31.4 µM
- TGI [4]: 29 µM
- TGI [5]: 40.9 µM
- TGI [6]: 31.7 µM
- TGI [7]: 24.1 µM
- TGI [8]: 31 µM
- TGI [9]: 47 µM
- TGI [10]: 31.3 µM
- TGI [11]: 33.6 µM
- TGI [12]: 30.8 µM
- TGI [13]: 31 µM
- TGI [14]: 32.7 µM
- TGI [15]: 43.2 µM
- TGI [16]: 40.7 µM
- TGI [17]: 34.2 µM
- TGI [18]: 33.3 µM
- TGI [19]: 37.4 µM
- TGI [20]: 33.9 µM
- TGI [21]: 41.1 µM
- TGI [22]: 35.1 µM
- TGI [23]: 31.8 µM
- TGI [24]: 24.6 µM
- TGI [25]: 40 µM
- TGI [26]: 31 µM
- TGI [27]: 32.6 µM
- TGI [28]: 30.8 µM
- TGI [29]: 58.6 µM
- TGI [31]: 31.2 µM
- TGI [32]: 38.5 µM
- TGI [33]: 36.2 µM
- TGI [34]: 30.8 µM
- TGI [35]: 32.7 µM
- TGI [36]: 35 µM
- TGI [37]: 34.7 µM
- TGI [38]: 32.9 µM
- TGI [39]: 32.8 µM
- TGI [40]: 45.8 µM
- TGI [41]: 34 µM
- TGI [42]: 29.6 µM
- TGI [43]: 40.2 µM
- TGI [44]: 38.2 µM
- TGI [45]: 34.9 µM
- TGI [46]: 31.1 µM
- TGI [47]: 30.6 µM
- TGI [48]: 10.6 µM
- TGI [49]: 29.2 µM
- TGI [50]: 41.7 µM
- TGI [51]: 39.9 µM
- TGI [52]: 32.8 µM
- TGI [59]: 33.6 µM
- TGI [53]: 33.4 µM
- TGI [54]: 43 µM
- TGI [55]: 34.9 µM
- TGI [56]: 30 µM
- TGI [57]: 52.1 µM
- TGI [58]: 33.1 µM

Reference: PubChem BioAssay (NCI)
